Measurements: patent US20240365774A1, “METHODS FOR CRYOPROTECTION AND LYOPROTECTION OF CELLS” (LONZA LTD, priority 2021, published 2024)
Entries after “also recorded” stand apart in the source; their conditions may differ.

System: human mesenchymal stem cells (hMSCs)
Test: Freeze-thaw of hMSCs in CPA formulations at −80° C., viability by alamarBlue assay
Assay type: cell-based
Procedure: Adherent bone marrow derived human mesenchymal stem cells (hMSCs) (ATCC) were expanded to create a cell bank and stored in the vapor phase of liquid nitrogen in growth medium supplemented with 50% FBS and 7.5% DMSO at passage 3. Aliquots of those samples were warmed in a 37° C. water bath and cultured in MSCGM™ Mesenchymal Stem Cell Growth Medium BulletKit™ (containing FBS, Lonza); a commercially available medium that facilitates undifferentiated proliferation of hMSCs. The cells were kept in a humidified incubator at 37° C. and 5% CO2, whilst the growth medium was changed every 3-4 days. When hMSCs reached confluence of ˜90%, they were split and re-seeded at ˜5000 cells/cm^2 to facilitate further expansion. For experiments, cells between passages 4-8 were used. […]
For frozen samples, that is for samples after freezing and thawing, viability was measured by performing an alamarBlue™ assay (Invitrogen) according to the manufacturer's instructions. […] This reaction only takes place in cells that are metabolically active (viable), thus correlating measured fluorescence with viable cells. […] Assay reagent was then applied and, after a 4 h incubation, fluorescence was measured using a SpectraMax® iD3 with wavelengths of λex=550 nm and λem=590 nm. Background fluorescence values were subtracted from the measurements and compared to fluorescence values of untreated cells.

Row | Structure (SMILES) | viable cells after freeze-thaw (5% DMSO control) [%] | viable cells after freeze-thaw (cryoprotection) (urea alone, 0.05, 0.1, 0.2 and 0.5 M, FIG. 1A)
1 | C[S+](C)[O-] [DMSO, dimethyl sulfoxide, reference compound] | 58 | 
2 | NC(N)=O [urea] |  | virtually no viable cells; also recorded: does not facilitate cryoprotection
